Data published in patent US7501419B2, “4-Squarylpiperazine derivatives as antiviral agents” (priority 2006, dated 2009).

tested on: HIV-1; assay: Single-round infectious HIV-1 luciferase reporter virus infection of HeLa CD4 cells; assay type: cell-based; settings: Human immunodeficiency virus 1, HeLa, 72 h
Method: • Virus production—Human embryonic Kidney cell line, 293T, was propagated in Dulbecco's Modified Eagle Medium (Invitrogen, Carlsbad, Calif.) containing 10% fetal Bovine serum (FBS, Sigma, St. Louis, Mo.). • Virus infection—Human epithelial cell line, HeLa, expressing the HIV-1 receptor CD4 was propagated in Dulbecco's Modified Eagle Medium (Invitrogen, Carlsbad, Calif.) containing 10% fetal Bovine serum (FBS, Sigma, St. Louis , Mo.) and supplemented with 0.2 mg/mL Geneticin (Invitrogen, Carlsbad, Calif.).
Transfections were performed using lipofectAMINE PLUS reagent as described by the manufacturer (Invitrogen, Carlsbad, Calif.).
• 1. […] Compound was added in a 2 μl dimethylsulfoxide solution, so that the final assay concentration would be ≦10 μM. • 3. 100 μl of single-round infectious reporter virus in Dulbecco's Modified Eagle Medium was then added to the plated cells and compound at an approximate multiplicity of infection (MOI) of 0.01, resulting in a final volume of 200 μl per well. • 4. Virally-infected cells were incubated at 37 degrees Celsius, in a CO2 incubator, and harvested 72 h after infection. • 5. Viral infection was monitored by measuring luciferase expression from viral DNA in the infected cells using a luciferase reporter gene assay kit, as described by the manufacturer (Roche Molecular Biochemicals, Indianapolis, Ind.). Infected cell supernatants were removed and 50 μl of lysis buffer was added per well. After 15 minutes, 50 μl of freshly-reconstituted luciferase assay reagent was added per well. Luciferase activity was then quantified by measuring luminescence using a Wallac microbeta scintillation counter. • 6. […] An EC50 provides a method for comparing the antiviral potency of the compounds of this disclosure. The effective concentration for fifty percent inhibition (EC50) was calculated with the Microsoft Excel Xlfit curve fitting software. For each compound, curves were generated from percent inhibition calculated at 10 different concentrations by using a four parameter logistic model (model 205).

Compound	EC50
O=C(C(=O)N1CCN(c2c(N3CCSCC3)c(=O)c2=O)CC1)c1c[nH]c2cccc(F)c12 [Number 21]	> 5 µM
CCN(Cc1ccccc1)c1c(N2CCN(C(=O)C(=O)c3c[nH]c4cccc(F)c34)CC2)c(=O)c1=O [Number 22]	> 5 µM
O=C(C(=O)N1CCN(c2c(N3CCc4ccccc4C3)c(=O)c2=O)CC1)c1c[nH]c2cccc(F)c12 [Number 23]	> 5 µM
CN1CCN(c2c(N3CCN(C(=O)C(=O)c4c[nH]c5cccc(F)c45)CC3)c(=O)c2=O)CC1 [Number 24]	> 5 µM
CCCN(CCC)c1c(N2CCN(C(=O)C(=O)c3c[nH]c4cccc(F)c34)CC2)c(=O)c1=O [Number 25]	> 5 µM
O=C(C(=O)N1CCN(c2c(N3CCC4(CCCC4)CC3)c(=O)c2=O)CC1)c1c[nH]c2cccc(F)c12 [Number 26]	> 5 µM
O=C(C(=O)N1CCN(c2c(-c3cccs3)c(=O)c2=O)CC1)c1c[nH]c2cccc(F)c12 [Number 27]	0.05 to 0.5 µM
O=C(C(=O)N1CCN(c2c(-c3ccco3)c(=O)c2=O)CC1)c1c[nH]c2cccc(F)c12 [Number 28]	0.5 to 5 µM
COc1ncc(OC)c2c(C(=O)C(=O)N3CCN(c4c(-c5ccccc5)c(=O)c4=O)CC3)c[nH]c12 [Number 29]	0.05 to 0.5 µM
COc1ncc(OC)c2c(C(=O)C(=O)N3CCN(c4c(-c5cccs5)c(=O)c4=O)CC3)c[nH]c12 [Number 30]	0.05 to 0.5 µM
COc1cnc(Cl)c2[nH]cc(C(=O)C(=O)N3CCN(c4c(-c5ccccc5)c(=O)c4=O)CC3)c12 [Number 31]	0.05 to 0.5 µM
COc1ncc(OC)c2c(C(=O)C(=O)N3CCN(c4c(-c5ccccc5)c(=O)c4=O)C[C@H]3C)c[nH]c12 [Number 32]	0.05 to 0.5 µM
COc1ncc(OC)c2c(C(=O)C(=O)N3CCN(c4c(-c5ccccc5)c(=O)c4=O)C[C@@H]3C)c[nH]c12 [Number 33]	0.05 to 0.5 µM
COc1cnc(Br)c2[nH]cc(C(=O)C(=O)N3CCN(c4c(-c5ccccc5)c(=O)c4=O)CC3)c12 [Number 34]	0.05 to 0.5 µM
COc1cnc(-c2cnccn2)c2[nH]cc(C(=O)C(=O)N3CCN(c4c(-c5ccccc5)c(=O)c4=O)CC3)c12 [Number 35]	0.05 to 0.5 µM
COc1cnc(-n2cncn2)c2[nH]cc(C(=O)C(=O)N3CCN(c4c(-c5ccccc5)c(=O)c4=O)CC3)c12 [Number 36]	0.05 to 0.5 µM
COc1ncc(OC)c2c(C(=O)C(=O)N3CCN(c4c(-c5ncco5)c(=O)c4=O)CC3)c[nH]c12 [Number 37]	0.5 to 5 µM
COc1ncc(OC)c2c(C(=O)C(=O)N3CCN(c4c(-c5ccccc5)c(=O)c4=O)[C@@H](C)C3)c[nH]c12 [Number 38]	0.05 to 0.5 µM
COc1ncc(OC)c2c(C(=O)C(=O)N3CCN(c4c(-c5ccccc5)c(=O)c4=O)[C@H](C)C3)c[nH]c12 [Number 39]	0.05 to 0.5 µM
COc1cnc(-n2ccc(C)n2)c2[nH]cc(C(=O)C(=O)N3CCN(c4c(-c5ccccc5)c(=O)c4=O)CC3)c12 [Number 40]	0.05 to 0.5 µM
COc1ncc(OC)c2c(C(=O)C(=O)N3CCN(c4c(-c5ccc(F)cc5)c(=O)c4=O)CC3)c[nH]c12 [Number 41]	0.05 to 0.5 µM
COc1cccc(-c2c(N3CCN(C(=O)C(=O)c4c[nH]c5c(OC)ncc(OC)c45)CC3)c(=O)c2=O)c1 [Number 42]	0.05 to 0.5 µM
COc1ncc(OC)c2c(C(=O)C(=O)N3CCN(c4c(-c5nccs5)c(=O)c4=O)CC3)c[nH]c12 [Number 43]	0.5 to 5 µM
